According to patent publication US9422289B2, “Use of pteridine derivatives for the treatment of increased intracranial pressure, secondary ischemia, and disorders associated with an increased level of cytotoxic reactive oxygen species” (VASOPHARM GMBH, priority 2003, dated 2016):

Tests used:
[1] = tested on: L-type Ca^2+ channel (stimulated); assay: Cell biology assay, Cerep 740-1; type: cell-based; conditions: 10 µM
Phosphodiesterase V (h) = molecular target: T1, Phosphodiesterase V (h) (Homo sapiens, UniProt O76074); type: biochemical; conditions: 10 µM
T1 construct: Cerep (assay catalogue, edition 2002) 752-e

M1 (h) = M1 (h) (Homo sapiens, UniProt P11229); type: binding; conditions: 10 µM
[2] = molecular target: T2, NOS inducible (whole cells/spectrophoto.) (Mus musculus, UniProt P29477); assay: Cell biology assay, Cerep 766-i1; type: cell-based; conditions: 10 µM
T2 construct: Cerep (assay catalogue, edition 2002) 766-i1

NMDA = assay: Radioligand binding, Cerep 895-3; conditions: 10 µM
Estrogen (ER) = assay: Radioligand binding, Cerep 813; conditions: 10 µM
5-HT2A (h) = molecular target: T3, 5-HT2A (h) (Homo sapiens, UniProt P28223); assay: Radioligand binding, Cerep 808-2h; conditions: 10 µM
T3 construct: Cerep (assay catalogue, edition 2002) 808-2h

[3] = tested on: Na^+ channel (h) (stimulated); assay: Cell biology assay, Cerep 739-1; type: cell-based, human; conditions: 10 µM
PDGF = assay: Radioligand binding, Cerep 881; conditions: 10 µM
H1 (central) = H1 (central) (Cavia porcellus, UniProt P31389); type: binding; conditions: 10 µM
H1 (central), sequence (P31389 whole entry): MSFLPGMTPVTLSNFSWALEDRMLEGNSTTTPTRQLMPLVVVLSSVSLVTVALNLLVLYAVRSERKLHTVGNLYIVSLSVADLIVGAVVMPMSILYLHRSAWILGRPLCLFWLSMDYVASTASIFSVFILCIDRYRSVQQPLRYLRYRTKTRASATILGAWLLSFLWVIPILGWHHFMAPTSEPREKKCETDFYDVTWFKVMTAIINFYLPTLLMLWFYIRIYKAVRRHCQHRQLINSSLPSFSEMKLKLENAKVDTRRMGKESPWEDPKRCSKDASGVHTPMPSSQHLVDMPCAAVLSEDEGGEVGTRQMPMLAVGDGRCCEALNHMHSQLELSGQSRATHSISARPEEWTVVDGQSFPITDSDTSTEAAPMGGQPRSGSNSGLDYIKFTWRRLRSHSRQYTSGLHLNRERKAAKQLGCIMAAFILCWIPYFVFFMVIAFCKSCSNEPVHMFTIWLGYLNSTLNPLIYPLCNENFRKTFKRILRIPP

GABAA = assay: Radioligand binding, Cerep 804-1; conditions: 10 µM
α1 (non-selective) = assay: Radioligand binding, Cerep 802-1a; conditions: 10 µM
β2 (h) = β2 (h) (Homo sapiens, UniProt P07550); type: binding; conditions: 10 µM
β2 (h), sequence (P07550 whole entry): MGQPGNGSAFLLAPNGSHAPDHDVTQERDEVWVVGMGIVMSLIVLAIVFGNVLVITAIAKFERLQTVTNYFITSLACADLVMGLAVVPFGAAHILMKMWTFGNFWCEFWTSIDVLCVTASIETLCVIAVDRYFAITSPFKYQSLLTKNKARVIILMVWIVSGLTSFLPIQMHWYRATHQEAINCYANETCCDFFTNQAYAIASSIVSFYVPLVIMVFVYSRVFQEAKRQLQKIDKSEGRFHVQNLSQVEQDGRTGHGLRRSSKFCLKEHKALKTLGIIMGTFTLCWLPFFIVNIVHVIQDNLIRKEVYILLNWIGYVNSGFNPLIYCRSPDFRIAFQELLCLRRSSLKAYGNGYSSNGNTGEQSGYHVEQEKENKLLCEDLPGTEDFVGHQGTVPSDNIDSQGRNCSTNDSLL

PAF = PAF (Oryctolagus cuniculus, UniProt G1TEI7); assay: Radioligand binding, Cerep 830; conditions: 10 µM
[4] = tested on: isolated rat middle cerebral arteries (MCA); assay: Contractile action in isolated rat middle cerebral arteries
ATPase (Na^+/K^+) = assay: Cell biology assay, Cerep 760; type: biochemical; conditions: 10 µM
[5] = tested on: Ca^2+ channel (L, diltiazem site); type: binding; conditions: 10 µM
M3 (h) = M3 (h) (Homo sapiens, UniProt P20309); assay: Radioligand binding, Cerep 806-3h; conditions: 10 µM
[6] = tested on: Ca^2+ channel (L, DHP site); type: binding; conditions: 10 µM
ETB (h) = ETB (h) (Homo sapiens, UniProt P24530); assay: Radioligand binding, Cerep 825-2h; conditions: 10 µM
GABA (non-selective) = type: binding; conditions: 10 µM
[7] = tested on: β-adrenoceptor - G protein coupling; type: cell-based
ETA (h) = ETA (h) (Homo sapiens, UniProt P25101); type: binding; conditions: 10 µM
D1 (h) = D1 (h) (Homo sapiens, UniProt P21728); type: binding; conditions: 10 µM
β1 (h) = β1 (h) (Homo sapiens, UniProt P08588); type: binding; conditions: 10 µM
Acetylcholinesterase (h) = Acetylcholinesterase (h) (Homo sapiens, UniProt P22303); type: biochemical; conditions: 10 µM
H2 = H2 (Cavia porcellus, UniProt P47747); type: binding; conditions: 10 µM
5-HT1B = 5-HT1B (Rattus norvegicus, UniProt P28564); type: binding; conditions: 10 µM
Na^+/K^+ ATPase (pump) = assay: Cell biology assay, Cerep 734; type: cell-based; conditions: 10 µM
DA uptake = DA uptake (Rattus norvegicus, UniProt P23977); type: cell-based; conditions: 10 µM
5-HT1D = assay: Radioligand binding, Cerep 808-1d; conditions: 10 µM
GABAB = GABAB (Rattus norvegicus, UniProt Q9Z0U4); type: binding; conditions: 10 µM
GABAB, sequence (O88871 41-940): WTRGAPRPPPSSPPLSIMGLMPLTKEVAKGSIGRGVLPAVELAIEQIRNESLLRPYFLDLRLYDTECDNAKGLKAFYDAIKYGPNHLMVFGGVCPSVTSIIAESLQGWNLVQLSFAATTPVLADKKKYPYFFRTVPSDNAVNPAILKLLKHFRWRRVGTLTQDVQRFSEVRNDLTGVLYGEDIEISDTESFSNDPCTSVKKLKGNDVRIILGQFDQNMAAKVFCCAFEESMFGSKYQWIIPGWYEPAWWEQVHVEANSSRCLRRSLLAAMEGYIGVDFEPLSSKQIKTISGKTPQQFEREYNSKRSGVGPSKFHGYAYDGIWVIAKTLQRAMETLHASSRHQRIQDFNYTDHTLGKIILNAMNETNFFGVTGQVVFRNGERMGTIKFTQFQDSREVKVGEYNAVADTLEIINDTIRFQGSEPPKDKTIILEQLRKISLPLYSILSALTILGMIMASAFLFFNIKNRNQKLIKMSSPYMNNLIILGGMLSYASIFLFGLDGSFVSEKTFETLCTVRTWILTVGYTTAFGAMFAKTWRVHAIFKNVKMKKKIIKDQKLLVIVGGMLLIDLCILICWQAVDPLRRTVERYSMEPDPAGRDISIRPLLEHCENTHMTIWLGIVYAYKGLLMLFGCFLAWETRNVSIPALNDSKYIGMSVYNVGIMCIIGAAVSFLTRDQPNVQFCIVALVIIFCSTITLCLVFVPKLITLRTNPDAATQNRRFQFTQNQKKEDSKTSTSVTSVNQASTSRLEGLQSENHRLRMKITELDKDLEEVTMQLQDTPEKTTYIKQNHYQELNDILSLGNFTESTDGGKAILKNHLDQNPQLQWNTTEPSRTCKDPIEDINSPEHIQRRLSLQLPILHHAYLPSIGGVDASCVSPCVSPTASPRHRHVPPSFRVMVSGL
GABAB, sequence (Q9Z0U4 20-960): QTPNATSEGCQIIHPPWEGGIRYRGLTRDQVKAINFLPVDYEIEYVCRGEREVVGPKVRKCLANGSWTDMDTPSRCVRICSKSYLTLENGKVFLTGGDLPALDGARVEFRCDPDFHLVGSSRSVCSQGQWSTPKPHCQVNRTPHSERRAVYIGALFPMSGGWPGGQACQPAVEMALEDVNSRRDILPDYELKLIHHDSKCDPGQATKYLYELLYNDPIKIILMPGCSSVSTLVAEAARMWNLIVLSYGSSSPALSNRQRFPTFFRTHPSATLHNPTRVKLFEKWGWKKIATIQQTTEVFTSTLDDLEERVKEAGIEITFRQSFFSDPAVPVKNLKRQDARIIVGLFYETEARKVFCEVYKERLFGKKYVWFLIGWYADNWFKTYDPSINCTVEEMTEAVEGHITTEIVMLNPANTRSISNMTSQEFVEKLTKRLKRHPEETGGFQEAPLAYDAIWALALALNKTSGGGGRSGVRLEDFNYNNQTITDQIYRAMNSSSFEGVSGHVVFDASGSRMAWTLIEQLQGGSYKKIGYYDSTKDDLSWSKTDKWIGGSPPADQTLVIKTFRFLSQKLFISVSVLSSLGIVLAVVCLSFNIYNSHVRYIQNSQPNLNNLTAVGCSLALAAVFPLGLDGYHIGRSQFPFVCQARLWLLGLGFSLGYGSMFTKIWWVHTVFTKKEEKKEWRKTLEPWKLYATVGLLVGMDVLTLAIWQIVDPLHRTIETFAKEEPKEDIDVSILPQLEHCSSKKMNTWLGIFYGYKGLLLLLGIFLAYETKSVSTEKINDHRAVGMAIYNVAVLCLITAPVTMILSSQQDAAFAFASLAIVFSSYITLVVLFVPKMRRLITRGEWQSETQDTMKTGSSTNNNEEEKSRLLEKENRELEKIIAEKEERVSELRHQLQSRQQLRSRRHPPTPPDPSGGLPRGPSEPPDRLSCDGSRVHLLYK

Ca^2+-ATPase (pump) = assay: Cell biology assay, Cerep 735; type: cell-based; conditions: 10 µM
5-HT uptake = 5-HT uptake (Rattus norvegicus, UniProt P31652); type: cell-based; conditions: 10 µM
IP3 = assay: Radioligand binding, Cerep 861-5; conditions: 10 µM
NE uptake = NE uptake (Rattus norvegicus, UniProt Q63380); type: cell-based; conditions: 10 µM
NE uptake, sequence (Q63380 entry or part of it): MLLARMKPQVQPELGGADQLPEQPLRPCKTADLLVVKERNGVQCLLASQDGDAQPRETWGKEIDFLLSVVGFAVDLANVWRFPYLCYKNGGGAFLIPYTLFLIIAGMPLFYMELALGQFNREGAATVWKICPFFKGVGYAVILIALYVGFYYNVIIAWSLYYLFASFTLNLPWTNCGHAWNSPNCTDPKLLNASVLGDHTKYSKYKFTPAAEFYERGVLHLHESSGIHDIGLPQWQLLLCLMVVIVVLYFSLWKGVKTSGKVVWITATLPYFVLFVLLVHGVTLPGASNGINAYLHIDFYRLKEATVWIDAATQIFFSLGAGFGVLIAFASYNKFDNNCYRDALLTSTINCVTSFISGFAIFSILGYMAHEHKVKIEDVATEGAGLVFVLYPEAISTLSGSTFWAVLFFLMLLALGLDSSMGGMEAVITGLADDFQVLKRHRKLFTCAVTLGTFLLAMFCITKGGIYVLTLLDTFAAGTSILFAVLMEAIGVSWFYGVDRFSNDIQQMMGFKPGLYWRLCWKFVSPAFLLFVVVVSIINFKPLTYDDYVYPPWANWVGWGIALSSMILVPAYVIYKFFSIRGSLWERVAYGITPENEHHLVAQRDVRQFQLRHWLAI

Kainate = assay: Radioligand binding, Cerep 895-2; conditions: 10 µM
[8] = molecular target: Phosphodiesterase III (h) (Homo sapiens, UniProt Q14432); assay: Cell biology assay, Cerep 752-ch; type: biochemical; conditions: 10 µM
Phosphodiesterase III (h), sequence (Q14432 669-1141 limits assumed): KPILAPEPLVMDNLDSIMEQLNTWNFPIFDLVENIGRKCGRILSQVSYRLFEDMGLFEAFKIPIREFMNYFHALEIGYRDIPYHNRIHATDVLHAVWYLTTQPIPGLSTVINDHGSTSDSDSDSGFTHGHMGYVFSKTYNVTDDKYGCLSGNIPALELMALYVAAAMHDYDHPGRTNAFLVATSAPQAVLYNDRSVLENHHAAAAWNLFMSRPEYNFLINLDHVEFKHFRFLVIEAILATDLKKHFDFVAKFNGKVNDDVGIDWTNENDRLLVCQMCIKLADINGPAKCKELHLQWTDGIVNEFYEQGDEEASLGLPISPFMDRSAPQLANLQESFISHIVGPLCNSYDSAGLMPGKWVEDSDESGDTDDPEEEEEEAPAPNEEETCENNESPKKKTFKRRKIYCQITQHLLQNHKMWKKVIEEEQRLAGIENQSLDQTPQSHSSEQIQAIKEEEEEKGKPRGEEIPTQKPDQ

K^+ATP channel = K^+ATP channel (Rattus norvegicus, UniProt Q09429); assay: Radioligand binding, Cerep 863-1; conditions: 10 µM
EGF (h) = EGF (h) (Homo sapiens, UniProt P00533); assay: Radioligand binding, Cerep […]; conditions: 10 µM
[9] = tested on: β-adrenoceptor -G protein coupling; type: cell-based; conditions: 10 µM
[10] = tested on: Cell proliferation (PDGF-stimulated Balb/c 3T3); assay: Cell biology assay, Cerep 791-3; type: cell-based; conditions: 10 µM
[11] = molecular target: T4, NOS constitutive (h) (endothelial) (Homo sapiens, UniProt P29474); type: biochemical; conditions: 10 µM
T4 construct: Cerep (assay catalogue, edition 2002) 766-c

AT2 (h) = AT2 (h) (Homo sapiens, UniProt P50052); type: binding; conditions: 10 µM
SK^+Ca channel = assay: Radioligand binding, Cerep 863-3; conditions: 10 µM
Vitamin D3 (h) = molecular target: T5, Vitamin D3 (h) (Homo sapiens, UniProt P11473); type: binding; conditions: 10 µM
T5 construct: Cerep (assay catalogue, edition 2002) 848-h
T5 sequence (P11473 whole entry): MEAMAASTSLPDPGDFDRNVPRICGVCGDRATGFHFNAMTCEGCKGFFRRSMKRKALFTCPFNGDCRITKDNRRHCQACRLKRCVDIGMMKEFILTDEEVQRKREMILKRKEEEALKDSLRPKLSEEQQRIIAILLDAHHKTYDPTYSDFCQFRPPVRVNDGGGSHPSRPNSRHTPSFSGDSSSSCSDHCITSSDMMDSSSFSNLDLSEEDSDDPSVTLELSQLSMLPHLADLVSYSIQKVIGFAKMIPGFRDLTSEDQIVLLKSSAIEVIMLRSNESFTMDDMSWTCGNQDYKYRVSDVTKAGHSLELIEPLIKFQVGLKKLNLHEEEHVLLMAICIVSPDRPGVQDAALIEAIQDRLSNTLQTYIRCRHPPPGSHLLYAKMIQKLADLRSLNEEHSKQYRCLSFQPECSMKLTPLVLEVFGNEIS

M2 (h) = M2 (h) (Homo sapiens, UniProt P08172); type: binding; conditions: 10 µM
[12] = tested on: Ca^2+ channel (L, verapamil site); assay: Radioligand binding, Cerep 861-L3; conditions: 10 µM
α2 (non-selective) = assay: Radioligand binding, Cerep 802-1b; conditions: 10 µM
K^+V channel = assay: Radioligand binding, Cerep 863-2; conditions: 10 µM
[13] = tested on: isolated rat basilar arteries (BA); assay: Contractile action in isolated rat basilar arteries
D2 (h) = D2 (h) (Homo sapiens, UniProt P14416); type: binding; conditions: 10 µM
D2 (h), sequence (P14416 whole entry): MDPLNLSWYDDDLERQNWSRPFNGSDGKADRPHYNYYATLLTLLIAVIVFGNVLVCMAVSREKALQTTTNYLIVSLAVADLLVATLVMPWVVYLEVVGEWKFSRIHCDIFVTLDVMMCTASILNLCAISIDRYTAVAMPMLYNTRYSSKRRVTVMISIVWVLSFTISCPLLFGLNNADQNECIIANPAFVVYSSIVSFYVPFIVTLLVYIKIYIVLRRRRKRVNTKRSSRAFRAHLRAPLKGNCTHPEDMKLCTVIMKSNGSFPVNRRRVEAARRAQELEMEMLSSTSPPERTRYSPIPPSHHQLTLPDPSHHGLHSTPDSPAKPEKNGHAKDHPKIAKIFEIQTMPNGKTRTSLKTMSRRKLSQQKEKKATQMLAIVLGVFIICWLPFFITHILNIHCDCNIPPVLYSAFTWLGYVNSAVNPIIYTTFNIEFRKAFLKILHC

AT1 (h) = AT1 (h) (Homo sapiens, UniProt P30556); assay: Radioligand binding, Cerep 821-1h; conditions: 10 µM
AMPA = assay: Radioligand binding, Cerep 895-1; conditions: 10 µM
[14] = tested on: Cell proliferation (h) (EGF-stimulated A-431); assay: cells; type: cell-based, human; conditions: 10 µM
[15] = tested on: Protein kinase A (stimulated); assay: Cell biology assay, Cerep 706-2; type: cell-based; conditions: 10 µM
5-HT2B (h) = molecular target: T6, 5-HT2B (h) (Homo sapiens, UniProt P41595); type: binding; conditions: 10 µM
T6 construct: Cerep (assay catalogue, edition 2002) 808-2bh

SMILES: CC(O)C(O)C1CNc2nc(N)nc(N)c2N1 [H4-aminobiopterin, 2,4-diamino-5,6,7,8-tetrahydro-6-(L-erythro-1,2-dihydroxypropyl)-pteridine]
- percent inhibition of control activity [1]: — (key: The symbol — indicates an inhibition of less than 10%.)
- percent inhibition of control activity (Phosphodiesterase V (h)): — (key: The symbol — indicates an inhibition of less than 10%.)
- percent inhibition of control specific binding (M1 (h)): — (key: The symbol — indicates an inhibition of less than 10%.)
- percent inhibition of control activity [2]: — (key: The symbol — indicates an inhibition of less than 10%.)
- percent inhibition of control specific binding (NMDA): — (key: The symbol — indicates an inhibition of less than 10%.)
- percent inhibition of control specific binding (Estrogen (ER)): — (key: The symbol — indicates an inhibition of less than 10%.)
- percent inhibition of control specific binding (5-HT2A (h)): — (key: The symbol — indicates an inhibition of less than 10%.)
- percent inhibition of control activity [3]: 12%
- percent inhibition of control specific binding (PDGF): — (key: The symbol — indicates an inhibition of less than 10%.)
- percent inhibition of control specific binding (H1 (central)): — (key: The symbol — indicates an inhibition of less than 10%.)
- percent inhibition of control specific binding (GABAA): — (key: The symbol — indicates an inhibition of less than 10%.)
- percent inhibition of control specific binding (α1 (non-selective)): — (key: The symbol — indicates an inhibition of less than 10%.)
- percent inhibition of control specific binding (β2 (h)): — (key: The symbol — indicates an inhibition of less than 10%.)
- percent inhibition of control specific binding (PAF): — (key: The symbol — indicates an inhibition of less than 10%.)
- contraction relative to contraction caused by 124 mM K^+-Krebs solution [4]: clear concentration dependent contraction
- percent inhibition of control activity (ATPase (Na^+/K^+)): — (key: The symbol — indicates an inhibition of less than 10%.)
- percent inhibition of control specific binding [5]: — (key: The symbol — indicates an inhibition of less than 10%.)
- percent inhibition of control specific binding (M3 (h)): 10%
- percent inhibition of control specific binding [6]: — (key: The symbol — indicates an inhibition of less than 10%.)
- percent inhibition of control specific binding (ETB (h)): — (key: The symbol — indicates an inhibition of less than 10%.)
- percent inhibition of control specific binding (GABA (non-selective)): — (key: The symbol — indicates an inhibition of less than 10%.)
- stimulation of control activity [7]: 11
- percent inhibition of control specific binding (ETA (h)): — (key: The symbol — indicates an inhibition of less than 10%.)
- percent inhibition of control specific binding (D1 (h)): — (key: The symbol — indicates an inhibition of less than 10%.)
- percent inhibition of control specific binding (β1 (h)): — (key: The symbol — indicates an inhibition of less than 10%.)
- percent inhibition of control activity (Acetylcholinesterase (h)): — (key: The symbol — indicates an inhibition of less than 10%.)
- percent inhibition of control specific binding (H2): — (key: The symbol — indicates an inhibition of less than 10%.)
- percent inhibition of control specific binding (5-HT1B): — (key: The symbol — indicates an inhibition of less than 10%.)
- percent inhibition of control activity (Na^+/K^+ ATPase (pump)): — (key: The symbol — indicates an inhibition of less than 10%.)
- percent inhibition of control activity (DA uptake): — (key: The symbol — indicates an inhibition of less than 10%.)
- percent inhibition of control specific binding (5-HT1D): — (key: The symbol — indicates an inhibition of less than 10%.)
- percent inhibition of control specific binding (GABAB): — (key: The symbol — indicates an inhibition of less than 10%.)
- percent inhibition of control activity (Ca^2+-ATPase (pump)): — (key: The symbol — indicates an inhibition of less than 10%.)
- percent inhibition of control activity (5-HT uptake): — (key: The symbol — indicates an inhibition of less than 10%.)
- percent inhibition of control specific binding (IP3): — (key: The symbol — indicates an inhibition of less than 10%.)
- percent inhibition of control activity (NE uptake): — (key: The symbol — indicates an inhibition of less than 10%.)
- percent inhibition of control specific binding (Kainate): — (key: The symbol — indicates an inhibition of less than 10%.)
- percent inhibition of control activity [8]: — (key: The symbol — indicates an inhibition of less than 10%.)
- percent inhibition of control specific binding (K^+ATP channel): — (key: The symbol — indicates an inhibition of less than 10%.)
- percent inhibition of control specific binding (EGF (h)): 10%
- percent of inhibition of control activity [9]: 31%
- percent inhibition of control activity [10]: — (key: The symbol — indicates an inhibition of less than 10%.)
- percent inhibition of control activity [11]: 76%
- percent inhibition of control specific binding (AT2 (h)): 16%
- percent inhibition of control specific binding (SK^+Ca channel): — (key: The symbol — indicates an inhibition of less than 10%.)
- percent inhibition of control specific binding (Vitamin D3 (h)): — (key: The symbol — indicates an inhibition of less than 10%.)
- percent inhibition of control specific binding (M2 (h)): — (key: The symbol — indicates an inhibition of less than 10%.)
- percent inhibition of control specific binding [12]: — (key: The symbol — indicates an inhibition of less than 10%.)
- percent inhibition of control specific binding (α2 (non-selective)): — (key: The symbol — indicates an inhibition of less than 10%.)
- percent inhibition of control specific binding (K^+V channel): — (key: The symbol — indicates an inhibition of less than 10%.)
- contraction relative to contraction caused by 124 mM K^+-Krebs solution [13]: clear concentration dependent contraction
- percent inhibition of control specific binding (D2 (h)): — (key: The symbol — indicates an inhibition of less than 10%.)
- percent inhibition of control specific binding (AT1 (h)): — (key: The symbol — indicates an inhibition of less than 10%.)
- percent inhibition of control specific binding (AMPA): — (key: The symbol — indicates an inhibition of less than 10%.)
- percent inhibition of control activity [14]: 23%
- percent inhibition of control activity [15]: — (key: The symbol — indicates an inhibition of less than 10%.)
- percent inhibition of control specific binding (5-HT2B (h)): — (key: The symbol — indicates an inhibition of less than 10%.)
